Reference: patent publication US7348153B2, “Method for identifying and designing immunogenic peptides” (Health Research, Inc., priority 2004, dated 2008)
Marks after values point to notes of the source that are not given here.

Experiments:
Format in all cases: cell-based, human
[1] = tested on: PBMCs from melanoma patients; assay: PBMC proliferation assay (tritiated thymidine incorporation); settings: for stimulation index: both peptides
Description: For proliferation assays, PBMCs were cultured in tetra-triplicate in 96-well flat-bottomed microtiter plates (Costar Corp., Cambridge, Mass.) at the concentration of 2×10^5 cells/well in 100 μl of complete RPMI 1640 containing L-glutamine and 10% fetal bovine serum. […] PBMCs were cultured for 6 days at 37° C. in a 5% CO2 atmosphere before addition of tritiated thymidine at a concentration of 1 μCi/well. Results are expressed as cpm of tritiated thymidine incorporated and as a stimulation index (Hogan et al. J Immunol 1989; 142:2097-104). The latter is the average cpm of lymphocytes cultured with peptide divided by the average cpm of lymphocytes cultured without peptide. […] After 5 additional days of culture at 37° C. cells were washed, replated, and restimulated at a 1:1 stimulator to responder ratio with irradiated (30 Gy) autologous PBMC stimulators and peptides at concentrations of 5, 25, and 50 μg/ml. IL-2 was added after 96 h, and cells were cultured for an additional 5 days at 37° C., after which they were restimulated for an additional 10 days at 37° C. Lymphocytes stimulated over three cycles were collected and used as effectors in a cytotoxicity (CTL) assay.

[2] = tested on: T2 cells pulsed with peptide; assay: 51Cr release CTL assay against peptide-pulsed T2 cells; settings: for lysis of T2-I-100 by peptide-stimulated CTL: immunized HLA-A2+ patients 1 and 6, E:T 30:1, 4 hour 51Cr release; for lysis of T2 cells pulsed with the stimulating peptide by peptide-stimulated CTL: nonimmunized HLA-A2+ patient 4, E:T 30:1, 4 hour; for lysis of T2-I-100 and T2-I-102 targets by peptide-stimulated lymphocytes: nonimmunized HLA-A2− patient 5
Excerpt: FIGS. 5A-5E are graphical representations of cytolytic activity of NP, I-100 and I-102-CTL from HLA-A2 immunized patients # 1 and # 6 (FIGS. 5A and 5B, respectively) and from HLA-A2, non-immunized patient # 4 (FIG. 5C) against T2-NP (▪) and T2-I-100 (□) targets. FIG. 5D depicts lytic activity of NP- and I-102-CTL from HLA-A2^− patient #3 against T2-NP (▪) and T2-I-100 (□) targets. FIG. 5E depicts CTL lysis by NP-, I-100-, and I-102-CTL effectors from […] patient #5 against T2-I-100 targets. The E:T ratio was 30:1 in a 4 hour 51Cr release assay; bars, ±S D.
For proliferation assays, PBMCs were cultured in tetra-triplicate in 96-well flat-bottomed microtiter plates (Costar Corp., Cambridge, Mass.) at the concentration of 2×10^5 cells/well in 100 μl of complete RPMI 1640 containing L-glutamine and 10% fetal bovine serum. Peptides I-100 and I-101 were added at 5, 25, and 50 μg/ml in serum-free RPMI 1640 up to a total volume of 200 μl. PBMCs were cultured for 6 days at 37° C. in a 5% CO2 atmosphere before addition of tritiated thymidine at a concentration of 1 μCi/well. Results are expressed as cpm of tritiated thymidine incorporated and as a stimulation index (Hogan et al. J Immunol 1989; 142:2097-104). The latter is the average cpm of lymphocytes cultured with peptide divided by the average cpm of lymphocytes cultured without peptide. […] Peptide-specific T cells were propagated by adding recombinant interleukin (IL)2 (90 IU/ml; Biosource International, Camarillo, Calif.) to PBMCs that had been cultured for 96 h at 37° C. with peptides. After 5 additional days of culture at 37° C. cells were washed, replated, and restimulated at a 1:1 stimulator to responder ratio with irradiated (30 Gy) autologous PBMC stimulators and peptides at concentrations of 5, 25, and 50 μg/ml. IL-2 was added after 96 h, and cells were cultured for an additional 5 days at 37° C., after which they were restimulated for an additional 10 days at 37° C. Lymphocytes stimulated over three cycles were collected and used as effectors in a cytotoxicity (CTL) assay.
(§1) To determine the effects of the immunization with […] on activation of melanoma cell-lytic CTLs, we compared the responses of immunized HLA-A2^+ patients 1 and 6 with that of nonimmunized HLA-A2^+ patient 4. As specificity and restriction control we analyzed the responses of nonimmunized HLA-A2^− patients 3 and 5. All of the CTLs were tested for their ability to lyse T2 cells pulsed with the stimulating peptide and A375sm melanoma cells. Lymphocytes collected after three rounds of peptide stimulation were tested for their ability to lyse ^51Cr-labeled targets as described previously (Fisk, et al. J Exp Med 1998;181:2109-17; Murray, et al. Clin Cancer Res 2002;11:3407-18). […] Cold target inhibition of tumor cell lysis experiments was performed as described (Murray, et al. Clin Cancer Res 2002;11:3407-18).

A375SM melanoma cells = assay: 51Cr release CTL assay against A375SM melanoma cells; settings: for lysis of A375SM cells by peptide-stimulated PBMCs: immunized HLA-A2+ patient 1
Description: NP-, I-100, and I-102 on the abscissa indicate corresponding CTL effectors. NP-CTL indicates CTL stimulated by T2 cells and IL-2 without addition of peptides. […] The E:T ratio was 20:1 in a 20 h ^51Cr release assay. FIG. 6C depicts the kinetics of A375SM melanoma cell lysis by NP-CTL (∘), I-100-CTL (●), and I-102-CTL (▴). CTL were incubated with target cells for up to 20 h.
as §1
To determine whether in vitro stimulation with peptides generated CTLs that recognized epitopes on HMW-MAA^+/HLA-A2^+ melanoma cells, PBMCs from immunized HLA-A2^+ patients 1 and 6 were stimulated with I-100 and 1-102 peptides and then tested for their ability to lyse A375SM melanoma cells. […] Therefore, these effectors were designated as I-100 CTL and I-102 CTL, respectively.

[3] = tested on: PBMCs from melanoma patients; assay: IFN-γ and IL-10 release by peptide-stimulated PBMC (double sandwich ELISA); settings: for IL-10 levels after restimulation / IFN-γ levels: HLA-A2+ patient 6, 2° STIM, 25 μg/ml; for IFN-γ levels: comparison between peptides (P>0.05); for IFN-γ:IL-10 ratio: 2° STIM; for average IFN-γ levels after 2° STIM: peptides 25 μg/ml
Description: Interaction of T cells with Ag can induce a few cycles of division resulting in Ag-primed uncommitted T cells or can induce T cells to differentiate and gain effector function. The effector function is best characterized by the ability of Ag-stimulated T cells to secrete Th1 cytokines and to mediate lysis of specific targets. To determine whether T cells from immunized patients acquired cytokine effector function, IFN-γ and IL-10 were measured in supernatants harvested from PBMC cultures stimulated with I-100 and I-102 peptides. To measure cytokine release, supernatants were collected at 24, 48, and 72 h after primary and secondary stimulation with 5, 25, and 50 μg/ml of peptides and stored frozen at −20° C. IFN-γ and IL-10 levels were measured by a double sandwich ELISA using the corresponding kits supplied by Biosource International. Assays were calibrated with human recombinant IFN-γ and IL-10 to detect each cytokine in a range of 15-1000 pg/ml.
IL-10 was assayed instead of IL-4 as a representative Th2 cytokine, because the PBMCs used as responders were from patients with melanoma. Therefore, they might contain regulatory cells. Patient 6 had supernatants saved from two separate experiments. […] Because after priming, all of the stimulated PBMCs were expanded in IL-2, we determined the effect of culturing PBMCs in IL-2 on IFN-γ induction.

[4] = patient 8, −/+, 1° STIM up to 6 days
[5] = HLA-A2+ patients 1, 2 and 6 immunized with MELIMMUNE
[6] = HLA-A2− patients 3, 5, 9 and 10 not immunized
[7] = patient 1, HLA-A2 phenotype/immunization +/+, 1° STIM up to 6 days
[8] = patient 2, +/+, 1° STIM up to 6 days
[9] = patient 3, HLA-A2 −, 1° STIM up to 6 days
[10] = patient 4, +/−, 1° STIM up to 6 days
[11] = patient 5, HLA-A2 −, 1° STIM up to 6 days
[12] = patient 6, +/+, 1° STIM up to 6 days
[13] = patient 7, −/+, 1° STIM up to 6 days
[14] = patient 9, −/−, 1° STIM up to 6 days
[15] = patient 10, −/−, 1° STIM up to 6 days
[16] = PBMCs from HLA-A2+ patient 6 and four HLA-A2− patients, preliminary experiments

Substance: E71: inactive HLA-A2 epitope from HER-2/neu protein, HER-2 (828-836) (QIAKGMSYL; UniProt P04626 828-836, looked up, fragment) [Peptide E71, reference compound]
- tritiated thymidine incorporated ([1]; lymphocytes from HLA-A2+ immunized patients 1, 2 and 6 (NP=353±84 cpm)): 411±190 cpm
- tritiated thymidine incorporated [1, 4]: 685±103 cpm

Substance: LLQLGYSGRL (designed peptide) [Peptide I-102]
- lysis of T2-I-100 by peptide-stimulated CTL [2]: to a significantly greater extent than control targets T2-NP
- lysis of T2 cells pulsed with the stimulating peptide by peptide-stimulated CTL [2]: lysed T2-I-102
- lysis of T2-I-102 targets by peptide-stimulated CTL ([2]; nonimmunized HLA-A2− patient 3, compared with T2-NP): no specific lysis
- lysis of T2-I-100 and T2-I-102 targets by peptide-stimulated lymphocytes [2]: unable to specifically lyse
- stimulation index [1, 5]: 2.7±0.7
- stimulation index [1, 6]: 1.2±0.4
- S.I. (stimulation index) [1, 7]: (3.3)
- tritiated thymidine incorporated [1, 7]: 1519 ± 92^a cpm
- S.I. (stimulation index) [1, 8]: (3.0)
- S.I. (stimulation index) [1, 9]: (1.4)
- S.I. (stimulation index) [1, 10]: (1.7)
- S.I. (stimulation index) [1, 11]: (2.0)
- S.I. (stimulation index) [1, 12]: (2.8)
- tritiated thymidine incorporated [1, 12]: 1464 ± 53^a cpm
- S.I. (stimulation index) [1, 13]: (1.2)
- tritiated thymidine incorporated [1, 13]: 755 ± 56 cpm
- S.I. (stimulation index) [1, 4]: (1.2)
- tritiated thymidine incorporated [1, 4]: 650 ± 31 cpm
- S.I. (stimulation index) [1, 14]: (0.9)
- tritiated thymidine incorporated [1, 14]: 425 ± 40 cpm
- S.I. (stimulation index) [1, 15]: (1.0
- tritiated thymidine incorporated [1, 15]: 200 ± 20 cpm
- lysis of A375SM cells by peptide-stimulated PBMCs (A375SM melanoma cells): effectively lysed A375SM cells
- increase of lysis of A375SM cells from 5 h to 20 h (A375SM melanoma cells; peptide-stimulated CTL, kinetics of lysis): 59%
- IL-10 levels after restimulation [3]: 212 ± 24 pg/mL
- IFN-γ levels [3]: similar
- IFN-γ:IL-10 ratio ([3]; HLA-A2+ patients): 3.96
- IFN-γ:IL-10 ratio ([3]; HLA-A2− patients): 0.97
- IL-10 after 2° STIM ([3]; PBMCs from HLA-A2+ patients): 155.7 ± 36.3 pg/mL
- average IFN-γ levels after 2° STIM ([3]; PBMCs from HLA-A2+ patients): 616.1 ± 86.3 pg/mL
- IL-10 after 2° STIM ([3]; PBMCs from HLA-A2− patients): 61.1 ± 25 pg/mL

Substance: LLQLYSGRL (human; HMW-MAA) [Peptide I-101]
- stimulation of proliferation [1, 16]: did not stimulate
- stimulation of IFN-γ and IL-10 secretion [3, 16]: did not stimulate

Substance: LLVLLYSKL (mouse; mAb MF11-30) [Peptide I-100]
- lysis of T2-I-100 by peptide-stimulated CTL [2]: to a significantly greater extent than control targets T2-NP
- lysis of T2 cells pulsed with the stimulating peptide by peptide-stimulated CTL [2]: did not lyse T2-I-100
- lysis of T2-I-100 and T2-I-102 targets by peptide-stimulated lymphocytes [2]: unable to specifically lyse
- stimulation index [1, 5]: 2.7±0.7
- stimulation index [1, 6]: 1.2±0.4
- S.I. (stimulation index) [1, 7]: (2.5)
- tritiated thymidine incorporated [1, 7]: 1123 ± 240^a cpm
- S.I. (stimulation index) [1, 8]: (3.3)
- S.I. (stimulation index) [1, 9]: (1.1)
- tritiated thymidine incorporated [1, 9]: 655 ± 51 cpm
- S.I. (stimulation index) [1, 10]: (1.5)
- S.I. (stimulation index) [1, 11]: (1.7)
- S.I. (stimulation index) [1, 12]: (3.1)
- tritiated thymidine incorporated [1, 12]: 1793 ± 58^a cpm
- S.I. (stimulation index) [1, 13]: (1.1)
- tritiated thymidine incorporated [1, 13]: 652 ± 77 cpm
- S.I. (stimulation index) [1, 4]: (0.9)
- tritiated thymidine incorporated [1, 4]: 490 ± 54 cpm
- S.I. (stimulation index) [1, 14]: (0.7)
- tritiated thymidine incorporated [1, 14]: 334 ± 26 cpm
- S.I. (stimulation index) [1, 15]: (0.9)
- tritiated thymidine incorporated [1, 15]: 184 ± 12 cpm
- lysis of A375SM cells by peptide-stimulated PBMCs (A375SM melanoma cells): effectively lysed A375SM cells
- IL-10 levels after restimulation [3]: 86 ± 11 pg/mL
- IFN-γ levels [3]: similar
- IFN-γ and IL-10 levels ([3]; HLA-A2+ patient 6 and HLA-A2− patient 7, after 1° STIM): low
- IFN-γ:IL-10 ratio ([3]; HLA-A2+ patients): 3.96
- IFN-γ:IL-10 ratio ([3]; HLA-A2− patients): 0.97
- IL-10 after 2° STIM ([3]; PBMCs from HLA-A2+ patients): 155.7 ± 36.3 pg/mL
- average IFN-γ levels after 2° STIM ([3]; PBMCs from HLA-A2+ patients): 616.1 ± 86.3 pg/mL
- IL-10 after 2° STIM ([3]; PBMCs from HLA-A2− patients): 61.1 ± 25 pg/mL
